Consider four compounds from patent US20060134197A1, “Method of reducing unpleasant taste and/or unpleasant odor” (priority 2002, published 2006).

The nature of data set [1]: Panel test of lowering iron taste and/or smell of aqueous bivalent iron ion solution. Details: key to Effect on lowering iron taste and/or smell: “Not effective (symbol “−”)” meaning of that the test aqueous solution showed no difference in iron taste and/or smell from that the control aqueous solution; “Slightly effective (symbol “+”)”, the test aqueous solution showes weaker iron taste and/or smell than the control aqueous solution but the deference was not significant; “Effective (symbol “++”)”, the test aqueous solution showed a slight iron taste and/or smell but it was significantly weaker than that of the control aqueous solution; “Strongly effective (symbol “+++”)”, the test aqueous solution showed almost no iron taste and/or smell. The settings on record: for Effect on lowering iron taste and/or smell: 5 mg bivalent iron per 100 ml, 12 panels. The method, then: To confirm the effect of various saccharides on inhibiting taste and/or smell of bivalent iron ion, the following experiment was carried out. An aqueous solution containing bivalent iron ion was prepared by dissolving 0.05556 part by weight of ammonium ferric citrate (iron content of about 18%), and 0.1 part by weight of ascorbic acid in 100 parts by weight of deionized water. Test aqueous solutions containing 5 mg of bivalent iron per 100 ml of water and 0.5, 1.0, 1.5, 2.0 or 5.0% of saccharide selected from sucrose, maltose (hydrous crystalline maltose commercialized by Hayashibara Biochemical Laboratories, Inc., Okayama, Japan, purify 99.0% or more), α,α-trehalose (hydrous crystalline α,α-trehalose commercialized by Hayashibara Biochemical Laboratories, Inc., Okayama, Japan, purity 99.0% or more), α-glucosyl α,α-trehalose (hydrous crystalline α-glucosyl α,α-trehalose prepared in Experiment B-1 of Japanese Patent Publication (Kokai) No. 291,986/1995, purity 99.0% or more), and […] (powdery α-maltosyl α,α-trehalose prepared in Example 5 described following, purity 98.1%) were prepared by admixing the above aqueous solution containing bivalent iron with an equal volume of a pre-prepared aqueous solution containing any one of the above saccharides at a concentration of 1.0, 2.0, 3.0, 4.0 or 10.0%, on a dry solid basis. As a control, an aqueous solution was prepared by admixing the aqueous solution containing bivalent iron ion with an equal volume of warter instead of the aqueous saccharide solution.
The effect on lowering iron taste and/or smell, namely unpleasant taste and/or smell of iron ion existing in a test aqueous solution at a concentration of 5 mg per 100 ml was judged by a panel test using 12 panels. […] In the judgement for each test aqueous solution, ten or more of 12 panels answered the same judgement.

Data set [2] in a line: Inhibiting the production of hydrogen sulfide from L-cysteine due to heat-decomposition. The settings on record: 2.5 g L-cysteine hydrochloride and 5 g saccharide in 50 ml; 80° C. for 15 minutes; 100 minus relative value, control defined as 100. The text has this: Two and half grams of precisely weighted L-cysteine hydrochloride (special reagent grade) and on a dry solid basis 5 g of a precisely measured saccharide sample; i.e. hydrous crystalline α,α-trehalose (reagent grade, purity 99.0% or more, commercialized by Hayashibara Biochemical Laboratories, Inc., Okayama, Japan), α-maltosyl α,α-trehalose prepared in the following Example 5 (purity 98.1%), or a reagent grade maltotetraose (purity 97.0% or more, commercialized by Hayashibara Biochemical Laboratories, Inc., Okayama, Japan); were placed in a 50-ml volume measuring flask and dissolved in deionized water to give a final volume of 50 ml. As a control, 2.5 g of precisely measured L-cysteine hydrochloride (special reagent grade) was dissolved in deionized water to give a final volume of 50 ml. Five ml of each sample was place into a 20-ml volume vial, sealed with a butyl gum cap, and kept at 80° C. for 15 minutes in an incubator. Hydrogen sulfide contained in 10 ml of the resulting headspace gas was measured by “GASTECH No. 4 LT”, a hydrogen sulfide detector commercialized by GL Science Corporation, under an aspiration time of one minute. The resulting value of the production of hydrogen sulfide of each test sample was compared with the value of control defined as 100 to calculate the relative value of the production of hydrogen sulfide. And then, the relative rate of inhibiting the production of hydrogen sulfide was calculated by 100 minus the relative value.

Data set [3] is described as follows: Water solubility and hygroscopicity of the agents. It counts as physicochemical.

Take `OC[C@H]1O[C@H](O[C@H]2[C@H](O)[C@@H](O)C(O)O[C@@H]2CO)[C@H](O)[C@@H](O)[C@@H]1O` (mixture of isomers) [Maltose, maltose]: the “Effect on lowering iron taste and/or smell” value is reported as “−” in data set [1] (saccharide 0.5%); “−” in data set [1] (saccharide 1.0%); “−” in data set [1] (saccharide 1.5%); “+” in data set [1] (saccharide 2.0%); “+” in data set [1] (saccharide 5.0%). In addition, the “Concentration effective on lowering unpleasant taste and/or smell of aqueous iron ion solution” value in data set [1] (to the total weight of the aqueous solution, dry solid basis) is reported as not below 2%.
As to `OC[C@H]1O[C@H](O[C@H]2[C@H](O)[C@@H](O)[C@@H](O[C@H]3[C@H](O)[C@@H](O)[C@@H](O[C@H]4[C@H](O)[C@@H](O)C(O)O[C@@H]4CO)O[C@@H]3CO)O[C@@H]2CO)[C@H](O)[C@@H](O)[C@@H]1O` (some centres unmarked) [Maltotetraose, maltotetraose], in data set [2], the “Relative rate of inhibiting the production of hydrogen sulfide” value was 12.
As to `OC[C@H]1O[C@H](O[C@H]2O[C@H](CO)[C@@H](O[C@H]3O[C@H](CO)[C@@H](O)[C@H](O)[C@H]3O)[C@H](O)[C@H]2O)[C@H](O)[C@@H](O)[C@@H]1O` [α-Glucosyl α,α-trehalose, α-glucosyl α,α-trehalose], the “Effect on lowering iron taste and/or smell” value in data set [1] (saccharide 0.5%) was “−”; in data set [1] (saccharide 1.0%), “+”; in data set [1] (saccharide 1.5%), “++”; in data set [1] (saccharide 2.0%), “++”; in data set [1] (saccharide 5.0%), “+++”.
With `OC[C@H]1O[C@H](O[C@H]2O[C@H](CO)[C@@H](O[C@H]3O[C@H](CO)[C@@H](O[C@H]4O[C@H](CO)[C@@H](O)[C@H](O)[C@H]4O)[C@H](O)[C@H]3O)[C@H](O)[C@H]2O)[C@H](O)[C@@H](O)[C@@H]1O` [α-Maltosyl α,α-trehalose, α-maltosyl α,α-trehalose], the “Relative rate of inhibiting the production of hydrogen sulfide” value in data set [2] came to 36. For the same compound, the “Effect on lowering iron taste and/or smell” value is “−” in data set [1] (saccharide 0.5%); “+” in data set [1] (saccharide 1.0%); “++” in data set [1] (saccharide 1.5%); “++” in data set [1] (saccharide 2.0%); “+++” in data set [1] (saccharide 5.0%). Also, the Hygroscopicity result in data set [3] was “low hygroscopicity”. Further, the Solubility in water entry in data set [3] is reported as “satisfactory solubility in water”.
